Data from publication PMC10743026, “Virtual Screening Technology for Two Novel Peptides in Soybean as Inhibitors of α-Amylase and α-Glucosidase” (Foods, 2023).
Like-named read-outs stand apart in the source and are kept apart here. Blank lines part the entries; values can stand above or below the substance they belong to. Ends that are not written are not given here.

Tests used:
[1] = tested on: α-amylase; conditions: cited from earlier work
Excerpt: (§1) Peptides are obtained from the decomposition of proteins. Standard methods for preparing peptides in the food industry include enzymatic hydrolysis and microbial hydrolysis.

[2] = target: T1, porcine pancreatic α-amylase (Sus scrofa, UniProt P00690); assay: α-Amylase inhibition assay in vitro (starch/DNS); type: biochemical; conditions: synthetic peptides; enzyme 0.5 U/mL, starch 10 mg/mL, PBS pH 6.9–7.2; 20 min premix, 10 min at 37 °C; DNS, 540 nm; mean ± standard error of the mean, three parallels
T1 construct: purchased Sigma-Aldrich (St. Louis, MO, USA)
T1 sequence (P00690 16-511): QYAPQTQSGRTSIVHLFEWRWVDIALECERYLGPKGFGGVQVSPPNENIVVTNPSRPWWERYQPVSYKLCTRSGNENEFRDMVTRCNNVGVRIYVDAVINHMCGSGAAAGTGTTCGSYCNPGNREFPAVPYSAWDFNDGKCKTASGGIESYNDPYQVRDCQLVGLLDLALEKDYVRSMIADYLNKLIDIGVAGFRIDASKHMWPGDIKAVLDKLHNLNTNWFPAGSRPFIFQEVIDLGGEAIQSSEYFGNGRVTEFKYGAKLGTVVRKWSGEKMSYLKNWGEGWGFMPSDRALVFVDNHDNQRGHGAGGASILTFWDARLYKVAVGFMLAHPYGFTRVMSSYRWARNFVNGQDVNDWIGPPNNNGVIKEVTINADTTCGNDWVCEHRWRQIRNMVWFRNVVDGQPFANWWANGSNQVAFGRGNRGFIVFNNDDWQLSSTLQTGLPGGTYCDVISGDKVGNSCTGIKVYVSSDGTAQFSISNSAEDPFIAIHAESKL
Excerpt: p-Nitrophenyl-α-D-glucopyranoside (pNPG) and soy protein isolate were obtained from Mackiln (Shanghai, China). DL-dithiothreitol (DTT), iodoacetamide (IAA), formic acid (FA), acetonitrile (ACN), methanol, and porcine pancreatic amylase (PPA) (>10 units/mg) were acquired from Sigma-Aldrich (St. Louis, MO, USA). α-Glucosidase (from Saccharomyces cerevisiae, 26.5 units/mg) and trypsin (from porcine pancreas, 250 units/mg) were obtained from Yuanye Biotech (Shanghai, China). DNS solution was purchased from Rhawn (Shanghai, China). Oligopeptides were prepared with LifeTein (Beijing, China). High-performance liquid chromatography (HPLC)-grade acetonitrile, methanol, and formic acid were obtained from Merck (Darmstadt, Germany). The other chemicals were of analytical grade.
Methods refer to Admassu’s and make appropriate modifications. The starch solution (10 mg/mL), enzyme solution (0.5 U/mL), and soybean peptide solution at different concentrations (5, 10, 15, 20, 25 mg/mL) were prepared, the solvent was PBS (pH 6.9–7.2). […] The absorbance was measured at 540 nm, and the α-amylase inhibition ratio was calculated according to Formula (1):(1) α−Amylase Inhibition Ratio=1−A1−A2/A3−A4×100% where A1, A2, A3, and A4 are the absorbance values of the sample, sample blank, negative control, and blank, respectively.

[3] = target: α-glucosidase; conditions: cited from earlier work
Excerpt: as §1

[4] = peptide from Camellia seed cake, ref [15]
[5] = peptide from egg albumin, ref [19]

Substance: GGSK [oligopeptide isolated from Porphyra spp]
- inhibition mode on α-amylase ([1]; peptides from Porphyra spp., ref [11]): could still bind with the substrate after binding with α-amylase

- IC50 [2]: 3.08 ± 0.15 mM
Substance: LDQTPRVF

Substance: LLLLPSYSEF [identified from Camellia seed cake]
- IC50 [3, 4]: 1110 µM
- inhibition type on α-glucosidase [3, 4]: mixed inhibition

- IC50 [2]: 5.58 ± 0.13 mM
Substance: SRNPIYSN

Substance: KLPGF [peptide segment identified in egg albumin]
- IC50 [3, 5]: 59.5 µM
- IC50 [1, 5]: 120 µM

Substance: GPPGPA [identified from the skin collagen of the Chinese giant salamander]
- inhibition type on α-glucosidase ([3]; peptide from skin collagen of Chinese giant salamander, ref [13]): competitive inhibitory effects
